According to patent US20110224231A1, “Novel Lactams as Beta Secretase Inhibitors” (Pfizer Inc., priority 2008, published 2011):
Where a name gives a salt, the structure may show the parent alone. Read-outs that look alike come from different tables or passages of the source.

Target: T1, soluble human BACE (Homo sapiens, UniProt P56817)
T1 construct: cells secreting human recombinant soluble BACE; made in house; conditioned medium
Test: BACE activity Cell Free Assay (ELISA of cleaved synthetic APP substrate)
Assay type: biochemical

[1] = Table 6, cell free, soluble human BACE, pH 4.5, 3 μM substrate, read-out: BACE Activity (Cell Free Assay IC50)

T1 sequence (P56817 46-457 limits assumed): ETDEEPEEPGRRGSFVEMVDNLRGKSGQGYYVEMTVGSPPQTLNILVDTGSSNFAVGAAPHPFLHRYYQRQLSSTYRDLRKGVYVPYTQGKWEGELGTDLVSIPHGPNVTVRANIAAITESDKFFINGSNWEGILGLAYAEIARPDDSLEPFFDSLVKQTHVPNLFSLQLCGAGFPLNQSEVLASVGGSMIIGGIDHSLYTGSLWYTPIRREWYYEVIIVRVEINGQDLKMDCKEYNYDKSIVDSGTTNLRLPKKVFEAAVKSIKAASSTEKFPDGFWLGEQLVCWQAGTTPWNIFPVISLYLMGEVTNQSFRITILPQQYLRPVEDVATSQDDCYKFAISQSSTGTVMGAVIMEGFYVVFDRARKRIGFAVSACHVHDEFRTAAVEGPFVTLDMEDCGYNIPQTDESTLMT

Row | SMILES | IC50 [1] [µM] | IC50 [µM]
1 | CC(C)Oc1cccc(CN2CC[C@]3(C=CC(=O)N3CC3CC3)C[C@@H]2C)c1 [Example @93, (5R,7S)-1-(cyclopropylmethyl)-8-(3-isopropoxybenzyl)-7-methyl-1,8-diazaspiro[4.5]dec-3-en-2-one] | 100 to 300 | 
2 | CCCN1C(=O)C=C[C@]12CCN(Cc1cccc(OC(C)C)c1)[C@@H](C)C2 [Example @94, (5R,7S)˜8˜(3˜isopropoxybenzyl)˜7˜methyl˜1˜propyl˜1,8-diazaspiro[4.5]dec˜3˜en˜2˜one] | 100 to 300 | 
3 | CC(C)Oc1cccc(CN2CC[C@]3(C=CC(=O)N3C3CC3)C[C@@H]2C)c1 [Example @95, (5R,7S)-1-Cyclopropyl-8-(3-isopropoxybenzyl)-7-methyl-1,8-diazaspiro[4.5]dec-3-en-2˜one, trifluoroacetate salt] | 100 to 300 | 
4 | CC(C)Oc1cccc(CN2CC[C@]3(CC(C)C(=O)N3c3cccc(F)c3)C[C@@H]2C)c1 (stereo partly drawn) [Example @96, (5R,7S)˜1˜(3˜Fluorophenyl)˜8˜(3˜isopropoxybenzyl)˜3,7˜dimethyl˜1,8˜diazaspiro[4.5]decan˜2˜one, hydrochloride salt] |  | 10 to 100
5 | CC(C)Oc1cc(CN2CC[C@]3(C=C(c4ccccc4)C(=O)N3c3cccc(F)c3)C[C@@H]2C)ccc1O [Example @97, (5R,7S)-1-(3-Fluorophenyl)-8-(4-hydroxy-3-isopropoxybenzyl)-7-methyl-3-phenyl-1,8-diazaspiro[4.5]dec-3-en-2-one, hydrochloride salt] |  | 1 to 10
6 | CC1=C[C@]2(CCN(Cc3ccc(O)c(OC(C)C)c3)[C@@H](C)C2)N(c2cccc(F)c2)C1=O [Example @98, (5R,7S)-1-(3-Fluorophenyl)-8-(4-hydroxy-3-isopropoxybenzyl)-3,7-dimethyl-1,8-diazaspiro[4.5]dec-3-en-2-one, hydrochloride salt] |  | 0.001 to 1
